# In ChEMBL document CHEMBL5385846, “Discovery and development of palmatine analogues as anti-NASH agents by activating farnesoid X receptor (FXR)” (Eur J Med Chem, 2023):
# Calls of active or inactive are those of the source. The calls are words filed in the database; no cut-off is given here.
# What was measured:
# Mus musculus [1] = assay: Hepatoprotective activity in CDAHFD induced C57BL/6N mouse liver injury model assessed as decrease in triglyceride level at 200 mg/kg,po qd administration for 4 weeks; assay type: functional, organism-based
# Mus musculus [2] = assay: Antifibrotic activity in CDAHFD induced non-alcoholic steatohepatitis C57BL/6N mouse model assessed as downregulation of TGF-beta1 protein expression at 200 mg/kg,po qd administration for 4 weeks by Western blotting analysis; assay type: functional, organism-based
# [3] = Metabolic stability in human liver microsomes assessed as compound remaining at 1 micromol/L measured upto 60 mins in presence of NADPH by LC-MS/MS analysis; assay type: ADME, Microsome; conditions: dose 1 µmol/L, read-out: Stability
# Mus musculus [4] = assay: Hepatoprotective activity in CDAHFD induced C57BL/6N mouse liver injury model assessed as decrease in ALT level at 200 mg/kg,po qd administration for 4 weeks; assay type: functional, organism-based
# Mus musculus [5] = assay: Hepatoprotective activity in CDAHFD induced C57BL/6N mouse liver injury model assessed as decrease in ALP level at 200 mg/kg,po qd administration for 4 weeks; assay type: functional, organism-based
smiles,measurement,setting,value
COc1cc2c(cc1OC)-c1cc3ccc(OC)c(OCc4cccc(C)c4)c3c[n+]1CC2.[Br-],Activity,Mus musculus [1],inactive
same,Activity,Mus musculus [2],Active
same,"remaining at 1 h, 1 µM",[3],44.1%
same,Activity,Mus musculus [4],Active
same,Activity,Mus musculus [5],Active
